system: HCoV 229E; test: HCoV 229E cytopathic effect (CPE) assay; format: cell-based, Human Coronavirus (HCov) 229E; settings: CellTiter Glo, read-out: 229 ECPE EC50
Description: Compounds were assayed using standard methods against multiple coronaviral strains, including HCoV 229E and OC43 strains. The antiviral activity of compounds was calculated based on the protection of the virus-induced CPE at each concentration normalized by the virus control.
Cytopathic effect (CPE) was measured by CellTiter Glo following the manufacturer's manual. The antiviral activity of compounds was calculated based on the protection of the virus-induced CPE at each concentration normalized by the virus control.

Q: `COc1cccc2[nH]c(C(=O)N[C@@H](CC(C)C)C(=O)N[C@@H](C[C@@H]3CCNC3=O)C(O)C#N)cc12` (single isomer, unassigned) [135 (Isomer 2)] was tested. Which EC50 did it give?
A: < 22 µM

Q: For `CC(C)C[C@H](NC(=O)c1nc2cccc(Cl)c2[nH]1)C(=O)N[C@H](C#N)C[C@@H]1CCNC1=O` [Compound 127], which EC50 is on record?
A: 2 to 10 µM

Q: For `CC(C)C[C@H](NC(=O)c1nc2cccc(Cl)c2[nH]1)C(=O)N[C@H](C#N)C[C@@H]1CCNC1=O` [Compound 133], which EC50 is on record?
A: < 22 µM

same assay, conditions: unidentified human coronavirus, CellTiter Glo, read-out: 229 ECPE EC50

Q: Which EC50 does the source give for `N#C[C@H](C[C@@H]1CCCNC1=O)NC(=O)C1CC2(CCC2)CN1C(=O)c1cc2cccc(Cl)c2[nH]1` (single isomer, unassigned) [729 (Isomer 1)] here?
A: < 22 µM

Q: How did the EC50 turn out when `CC(C)(C)C[C@H](NC(=O)c1cc2ccc(Cl)c(Cl)c2[nH]1)C(=O)N[C@H](C#N)C[C@@H]1CCCNC1=O` [Compound 725] was run?
A: < 22 µM

Q: For `COc1cccc2[nH]c(C(=O)N3CC4(CCCC4)C[C@H]3C(=O)N[C@H](C#N)C[C@@H]3CCNC3=O)cc12` [Compound 401, (S)—N—((S)-1-cyano-2-((S)-2-oxopyrrolidin-3-yl)ethyl)-2-(4-methoxy-1H-indole-2-carbonyl)-2-azaspiro[4.4]nonane-3-carboxamide], which EC50 is on record?
A: < 22 µM

Q: `COc1cccc2[nH]c(C(=O)N[C@@H](CC3CC3)C(=O)N[C@H](C#N)C[C@@H]3CCNC3=O)cc12` [Compound 205, N—((S)-1-(((S)-1-cyano-2-((S)-2-oxopyrrolidin-3-yl)ethyl)amino)-3-cyclopropyl-1-oxopropan-2-yl)-4-methoxy-1H-indole-2-carboxamide] was tested. Which EC50 did it give?
A: < 22 µM

Q: How did the EC50 turn out when `CC(C)C[C@H](NC(=O)c1nc2ccccc2[nH]1)C(=O)N[C@H](C#N)C[C@@H]1CCNC1=O` [Compound 103, N-[(1S)-1-[[(1S)-1-cyano-2-[(3S)-2-oxopyrrolidin-3-yl]ethyl]carbamoyl]-3-methyl-butyl]-1H-benzimidazole-2-carboxamide] was run?
A: < 22 µM

Q: `CCNC(C#N)[C@H](C[C@@H]1CCNC1=O)NC(=O)[C@H](CC(C)C)NC(=O)c1cc2c(OC)cccc2[nH]1` (stereo partly drawn) [Compound 511, N-[(1S)-1-[[(1S)-2-cyano-2-(ethylamino)-1-[[(3S)-2-oxopyrrolidin-3-yl]methyl]ethyl]carbamoyl]-3-methyl-butyl]-4-methoxy-1H-indole-2-carboxamide] was tested. Which EC50 did it give?
A: < 22 µM

Q: With `CC(C)C[C@H](NC(=O)c1nc2c(OC(F)(F)F)cccc2[nH]1)C(=O)N[C@H](C#N)C[C@@H]1CCNC1=O` [Compound 363] as the molecule, how does the EC50 read?
A: < 22 µM

Q: `COc1cccc2[nH]c(C(=O)N[C@@H](CC(C)C)C(=O)N[C@@H](C[C@@H]3CCNC3=O)C(C#N)NCc3ccccc3)cc12` (single isomer, unassigned) [507 (Isomer 1.1)] was tested. Which EC50 did it give?
A: < 22 µM

Q: For `COc1cccc2[nH]c(C(=O)N[C@@H](CC(C)C)C(=O)N[C@@H](C[C@@H]3CCNC3=O)C(O)C#N)cc12` (single isomer, unassigned) [134 (Isomer 1)], which EC50 is on record?
A: < 22 µM

Q: With `N#C[C@H](C[C@@H]1CCCNC1=O)NC(=O)[C@H](CC1CC1)NC(=O)c1cc2ccc(Cl)cc2[nH]1` [Compound 635, 6-Chloro-N-[(1S)-2-[[(1S)-1-cyano-2-[(3S)-2-oxo-3-piperidyl]ethyl]amino]-1-(cyclopropylmethyl)-2-oxo-ethyl]-1H-indole-2-carboxamide] as the molecule, how does the EC50 read?
A: < 22 µM

Q: `N#C[C@H](C[C@@H]1CCNC1=O)NC(=O)[C@H](CC1CC1)NC(=O)c1cc2c([nH]1)CCCC2` [Compound 711] was tested. Which EC50 did it give?
A: < 22 µM

Q: How did the EC50 turn out when `COc1cccc2[nH]c(C(=O)N[C@@H](CC(C)C)C(=O)NC(C#N)c3cccnc3)cc12` (stereo partly drawn) [Compound 433] was run?
A: 2 to 10 µM

Q: `COc1cccc2[nH]c(C(=O)N[C@@H](CC(C)(C)C)C(=O)N[C@H](C#N)C[C@@H]3CCNC3=O)cc12` [Compound 405, N-[(1S)-1-[[(1S)-1-cyano-2-[(3S)-2-oxopyrrolidin-3-yl]ethyl]carbamoyl]-3,3-dimethyl-butyl]-4-methoxy-1H-indole-2-carboxamide] was tested. Which EC50 did it give?
A: < 22 µM

Q: `COc1cccc2[nH]c(C(=O)N3C[C@H](c4ccccc4)C[C@H]3C(=O)N[C@@H](C[C@@H]3CCNC3=O)C(O)C#N)cc12` (stereo partly drawn) [Compound 345] was tested. Which EC50 did it give?
A: < 22 µM

Q: `CC(C)C[C@H](NC(=O)c1nc2ncccc2[nH]1)C(=O)N[C@H](C#N)C[C@@H]1CCNC1=O` [Compound 131, N-[(1S)-1-[[(1S)-1-cyano-2-[(3S)-2-oxopyrrolidin-3-yl]ethyl]carbamoyl]-3-methyl-butyl]-1H-imidazo[4,5-b]pyridine-2-carboxamide] was tested. Which EC50 did it give?
A: 2 to 10 µM

Q: For `COc1ccc(Cl)c2[nH]c(C(=O)N[C@@H](CC(C)(C)C)C(=O)N[C@H](C#N)C[C@@H]3CCCNC3=O)cc12` [Compound 737], which EC50 is on record?
A: < 22 µM

Q: With `COc1cccc2[nH]c(C(=O)N3CC4(CCCCC4)CC3C(=O)N[C@H](C#N)C[C@@H]3CCNC3=O)cc12` (single isomer, unassigned) [389A (Isomer 1)] as the molecule, how does the EC50 read?
A: < 22 µM

Q: `CC(C)C[C@H](NC(=O)c1cc2c(OC(F)(F)F)cccc2[nH]1)C(=O)N[C@H](C#N)C[C@@H]1CCNC1=O` [Compound 361] was tested. Which EC50 did it give?
A: < 22 µM

Q: For `COc1cccc2[nH]c(C(=O)N[C@@H](CC3CCCCC3)C(=O)N[C@H](C#N)C[C@@H]3CCNC3=O)cc12` [Compound 185, N-[(1S)-2-[[(1S)-1-cyano-2-[(3S)-2-oxopyrrolidin-3-yl]ethyl]amino]-1-(cyclohexylmethyl)-2-oxo-ethyl]-4-methoxy-1H-indole-2-carboxamide], which EC50 is on record?
A: < 22 µM

Q: How did the EC50 turn out when `COc1cccc2[nH]c(C(=O)N[C@@H](CC(C)C)C(=O)N[C@@H](C[C@@H]3CCNC3=O)C(C#N)N[C@@H](C)c3ccccc3)cc12` (stereo partly drawn) [Compound 329] was run?
A: < 22 µM

Q: Which EC50 does the source give for `COc1cccc2[nH]c(C(=O)N[C@@H](CC(C)C)C(=O)N[C@H](/C=C/S(C)(=O)=O)C[C@@H]3CCNC3=O)cc12` [Compound 136, 4-methoxy-N-[(1S)-3-methyl-1-[[(E,1S)-3-methylsulfonyl-1-[[(3S)-2-oxopyrrolidin-3-yl]methyl]allyl]carbamoyl]butyl]-1H-indole-2-carboxamide] here?
A: > 30 µM

Q: How did the EC50 turn out when `COc1cccc2[nH]c(C(=O)N3C[C@H](c4ccccc4)C[C@H]3C(=O)N[C@H](C#N)C[C@@H]3CCNC3=O)cc12` [Compound 171] was run?
A: < 22 µM

Q: How did the EC50 turn out when `N#C[C@H](C[C@@H]1CCCNC1=O)NC(=O)[C@H](CC1CC1)NC(=O)c1nc2c(Cl)ccc(Cl)c2[nH]1` [Compound 637, 4,7-dichloro-N-[(1S)-2-[[(1S)-1-cyano-2-[(3S)-2-oxo-3-piperidyl]ethyl]amino]-1-(cyclopropylmethyl)-2-oxo-ethyl]-1H-benzimidazole-2-carboxamide] was run?
A: < 22 µM

Q: With `N#C[C@H](C[C@@H]1CCCNC1=O)NC(=O)[C@H](CC1CC1)NC(=O)c1cc2c(Cl)nccc2[nH]1` [Compound 715] as the molecule, how does the EC50 read?
A: < 22 µM

Q: How did the EC50 turn out when `CC(C)(C)C[C@H](NC(=O)c1cc2ccc(Cl)cc2[nH]1)C(=O)N[C@H](C#N)C[C@@H]1CCCNC1=O` [Compound 745] was run?
A: < 22 µM

Q: For `N#C[C@H](C[C@@H]1CCCNC1=O)NC(=O)[C@H](CC1CC1)NC(=O)c1cc2cc(Cl)ncc2[nH]1` [Compound 717], which EC50 is on record?
A: < 22 µM

Q: With `COc1cccc2[nH]c(C(=O)N[C@@H](CC3CC3)C(=O)N[C@H](C#N)C[C@@H]3CCCNC3=O)cc12` [Compound 491, N-[(1S)-2-[[(1S)-1-cyano-2-[(3S)-2-oxo-3-piperidyl]ethyl]amino]-1-(cyclopropylmethyl)-2-oxo-ethyl]-4-methoxy-1H-indole-2-carboxamide] as the molecule, how does the EC50 read?
A: < 22 µM

Q: How did the EC50 turn out when `CC(C)(C)C[C@H](NC(=O)c1cc2cccc(Cl)c2[nH]1)C(=O)N[C@H](C#N)C[C@@H]1CCCNC1=O` [Compound 721, 7-chloro-N—((S)-1-(((S)-1-cyano-2-((S)-2-oxopiperidin-3-yl)ethyl)amino)-4,4-dimethyl-1-oxopentan-2-yl)-1H-indole-2-carboxamide] was run?
A: < 22 µM

Q: How did the EC50 turn out when `COc1cccc2[nH]c(C(=O)N3C[C@H]4C([C@H]3C(=O)N[C@H](C#N)C[C@@H]3CCNC3=O)C4(C)C)cc12` (stereo partly drawn) [Compound 197, (2S,5S)—N-[(1S)-1-cyano-2-[(3S)-2-oxopyrrolidin-3-yl]ethyl]-3-(4-methoxy-1H-indole-2-carbonyl)-6,6-dimethyl-3-azabicyclo[3.1.0]hexane-2-carboxamide] was run?
A: < 22 µM

Q: How did the EC50 turn out when `N#C[C@H](C[C@@H]1CCNC1=O)NC(=O)[C@H](CC1CC1)NC(=O)c1cc2c(C3CC3)cccc2[nH]1` [Compound 375A] was run?
A: < 22 µM

Q: With `COc1cccc2[nH]c(C(=O)NC(CC(C)C)C(=O)NC(CC3CCNC3=O)C(O)C#N)cc12` (stereo not drawn) [Compound 134] as the molecule, how does the EC50 read?
A: < 22 µM

Q: With `CCOc1cccc2[nH]c(C(=O)N[C@@H](CC(C)C)C(=O)N[C@H](C#N)C[C@@H]3CCNC3=O)cc12` [Compound 377] as the molecule, how does the EC50 read?
A: < 22 µM

Q: Which EC50 does the source give for `CC(C)(C)C[C@H](NC(=O)c1cc2c(Cl)ccc(Cl)c2[nH]1)C(=O)N[C@H](C#N)C[C@@H]1CCCNC1=O` [Compound 735] here?
A: < 22 µM

Q: How did the EC50 turn out when `CCNC(C#N)[C@H](C[C@@H]1CCNC1=O)NC(=O)[C@H](CC(C)C)NC(=O)c1cc2c(OC)cccc2[nH]1` (single isomer, unassigned) [511 (Isomer 1)] was run?
A: < 22 µM

Q: Which EC50 does the source give for `COc1cccc2[nH]c(C(=O)N3CC4(CCCCC4)CC3C(=O)N[C@H](C#N)C[C@@H]3CCCNC3=O)cc12` (single isomer, unassigned) [681 (Isomer 1)] here?
A: < 22 µM

Q: How did the EC50 turn out when `COc1cccc2[nH]c(C(=O)N3CC4(CC4)C[C@H]3C(=O)N[C@H](C#N)C[C@@H]3CCNC3=O)cc12` [Compound 397] was run?
A: < 22 µM

Q: For `COc1cccc2[nH]c(C(=O)N3C[C@@H]4CCC[C@@H]4[C@H]3C(=O)N[C@H](C#N)C[C@@H]3CCNC3=O)cc12` [Compound 393], which EC50 is on record?
A: < 22 µM

Q: Which EC50 does the source give for `COc1cccc2[nH]c(C(=O)N[C@@H](CC(C)C)C(=O)N[C@@H](C[C@@H]3CCNC3=O)C(N)C#N)cc12` (stereo partly drawn) [Compound 344C, N-[(1S)-1-[[(1S)-2-amino-2-cyano-1-[[(3S)-2-oxopyrrolidin-3-yl]methyl]ethyl]carbamoyl]-3-methyl-butyl]-4-methoxy-1H-indole-2-carboxamide] here?
A: < 22 µM

Q: For `COc1c(Cl)ccc2[nH]c(C(=O)N[C@@H](CC(C)(C)C)C(=O)N[C@H](C#N)C[C@@H]3CCCNC3=O)cc12` [Compound 739], which EC50 is on record?
A: < 22 µM
